For orientation: IC50 means the midpoint of a concentration-inhibition curve.

Like-named read-outs stand apart in the source and are kept apart here.

In experiment [1] the target is T1, CCR3 (Homo sapiens, UniProt P51677).
T1 sequence (P51677 1-355): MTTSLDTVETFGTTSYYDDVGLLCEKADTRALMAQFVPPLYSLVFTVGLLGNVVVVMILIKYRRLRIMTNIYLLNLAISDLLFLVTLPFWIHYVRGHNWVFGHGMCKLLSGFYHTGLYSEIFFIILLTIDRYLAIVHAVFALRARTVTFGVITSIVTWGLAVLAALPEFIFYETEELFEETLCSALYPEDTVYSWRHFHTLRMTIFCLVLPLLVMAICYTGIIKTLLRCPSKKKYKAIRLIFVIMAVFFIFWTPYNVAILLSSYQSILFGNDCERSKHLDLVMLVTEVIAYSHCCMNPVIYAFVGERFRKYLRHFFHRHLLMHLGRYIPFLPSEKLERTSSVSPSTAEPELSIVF
The settings on record: assay not stated; from the cited reference; cited from earlier work.

Experiment [2] concerns the target T1, CCR3. The settings on record: from the cited reference; read-out: IC50 (Calcium influx); cited from earlier work.
Experiment [3] deals with choroidal neovascularization (CNV) secondary to wAMD. The experiment can be described thus: clinical cases, naïve subject eyes: oral Compound 1 followed by IVT anti-VEGF. The class given is in vivo, human. How it is done:
Newly diagnosed subjects with choroidal neovascularization (CNV) secondary to wAMD were administered 400 mg of Compound 1 CCR antagonist orally twice per day (BID) for a total dose of 800 mg per day. The clinical trial treatment regimen included 6 weeks of Compound 1 followed by 4 weeks of safety follow up (weeks 7 and 8 as in office visits and follow up by phone at week 10) with no additional Compound 1 treatment. Subject treatment visits took place once per week where mean changes in BCVA as measured by ETDRS were noted, slit lamp and SD-OCT performed, and intraocular pressure taken. Subjects then returned to routine treatment with their physician post clinical trial and were treated or re-treated with α-VEGF agents per physician judgment guided by standard criteria such as new CNV activity on OCT/angio-OCT (aOCT) or increased foveal subretinal fluid (SRF)/intra-retinal fluid (IRF). Different α-VEGF agents (described in FIGS. 1-3, 6-8, 11-13, and 16-18, 21 and Tables A-C and E-G) were administered by intra-vitreal injection. For aflibercept, 2 mg in 0.05 mL was given per single intravitreal injection. For bevacizumab, 1.25 mg in 0.05 mL was given per single intravitreal injection. For ranibizumab, 0.5 mg in 0.05 mL was given per single intravitreal injection. All OCT tests were performed using REVO NX (Optopol Technology, Poland). A 3-dimensional (3D) scanning protocol covering a 7×7 mm area was used (1024 A-scans×64 tomograms). The central retinal thickness (CRT) was measured automatically (software version 9.6). The detection of the fovea and the accuracy of layers segmentation was checked by the operator. If necessary, the fovea location and the outer retinal boundaries were corrected manually by moving the pointer to the desired position. In such cases, the central macular thickness value was recalculated. Subretinal and intraretinal fluid presence was assessed manually. SRF was defined as a hyporeflective space between retinal pigment epithelium and the sensory retina, whereas IRF as ovoid or round spaces within the retina, with a low reflectivity content. SRF and IRF was distinguished from the outer retinal tubulations (ORTs) and degenerative IRF. The latter were not recognized as a CNV activity sign. CNV activity signs such as neovascular vasculature seen on OCT angiography were monitored. Additionally, lipid exudates and enlargement of RPE elevation were noted.

Experiment [4] deals with T1, CCR3. The note with it: from the cited reference; read-out: IC50 (binding); cited from earlier work.
Experiment [5] addresses T1, CCR3. The settings on record: from the cited reference; read-out: IC50 (chemotaxis); cited from earlier work.
The test system of experiment [6] is refractory wet Age-Related Macular Degeneration (wAMD). The experiment can be described thus: clinical case, refractory subject eyes: oral Compound 1 followed by IVT anti-VEGF. The class given is in vivo, human. The settings on record: Compound 1 regimen followed by IVT anti-VEGF, summary. How it is done: Subjects with refractory wet Age-Related Macular Degeneration (wAMD) were administered 400 mg of Compound 1 CCR antagonist orally twice per day (BID) for a total dose of 800 mg per day. The treatment regimen of Compound 1 lasted 6-weeks. Refractory subjects for this 6-week regimen were described as having persistent subretinal fluid, intraretinal fluid, and absence of improvement in visual acuity after at least 3 consecutive (approximately 4-6 weeks apart) IVT anti-VEGF injections. After the end of a clinical trial consisting of 6-weeks of Compound 1 CCR antagonist treatment, and four weeks of clinical trial follow up with no additional treatment, a subject with heavily pre-treated bilateral disease entered back into normal treatment with their physician and was treated or re-treated with α-VEGF agents per physician judgment guided by standard criteria such as new CNV activity on OCT/angiography OCT (angio-OCT or aOCT) or foveal subretinal fluid (SRF)/intra-retinal fluid (IRF) or PED. Different α-VEGF agents (described in FIGS. 4-5, 9-10, 14-15, 19-21 and Tables D and H) were administered by intra-vitreal injection. […] The central retinal thickness (CRT) was measured automatically (software version 9.6). […] Subretinal and intraretinal fluid presence was assessed manually. […] CNV activity signs such as neovascular vasculature seen on OCT angiography were monitored. […]

Experiment [7] relates to human eotaxin-1 induced eosinophil shape change. The settings on record: human whole blood; read-out: IC50, antagonism of human eotaxin-1 induced eosinophil shape change; cited from earlier work.
Experiment [8] deals with neovascular (wet) AMD. The note with it: cited from earlier work; for patients with persistent presence of fluid at the retina (OCT or angiography): IVT, after two years of monthly injections.
Setting [9] is: Patient Case 3, after 6 weeks oral Compound 1, once ranibizumab, subsequently bevacizumab.

Regarding `Cc1ccc(C(=O)N[C@@H](Cc2ccc(Cl)cc2)C(=O)N[C@@H](C)C(=O)Nc2ccc(Cl)cc2)c(C)c1`, the IC50 in experiment [1] was 3.5 nM.

In the case of `Cc1ccc(C(=O)N2CCC(=CC(=O)N[C@@H]3CCN(Cc4ccc5cc(F)ccc5c4)C3)CC2)nn1`, the IC50 in experiment [2] was 6.2 nM.

Turning to aflibercept, the “average anti-VEGF doses required per year” value in experiment [3] (Patient Case 2, after 6 weeks oral Compound 1) is recorded as 2.36 doses per year.

Take `O=C(Nc1ccccc1[N+](=O)[O-])[C@@H]1CCCN1CNC1CC2CCC(C1)N2Cc1ccc2cc(F)ccc2c1` (stereo partly drawn): in experiment [1], the IC50 was 4.9 nM.

`O=C(NCC1CCCN(C2CCN(Cc3ccc(Cl)c(Cl)c3)CC2)C1)c1cccc2cccnc12` (stereo not drawn): in experiment [1], the 50% inhibitory concentration (IC50) is 30 nM.

As for `Cc1ccc[n+]([O-])c1C(=O)N1CCC(=CC(=O)N[C@@H]2CCN(Cc3ccc4cc(F)ccc4c3)C2)CC1`, the results for the IC50 in experiment [4], in experiment [2] and in experiment [5] were 3 nM, 5.4 nM and 19.9 nM, respectively.

`NC(=O)c1ccc(CNC(=O)NCC2CN(Cc3ccc(Cl)c(Cl)c3)CCO2)cc1` (stereo not drawn): the IC50 in experiment [1] was 10 nM.

Regarding `Cc1cc(C(=O)N(C)C)cc(NC(=O)[C@H]2CCC(=O)N2C2CCN(Cc3ccc(Cl)c(C)c3)CC2)n1` [Compound 1], in experiment [6], the CRT result was “stabilized” and the “Central retinal pigmental epithelium detachment height” value was “reduced”. The IC50 in experiment [7] is 42.5 ± 43.5 nM.

For the molecule `CC(=O)Nc1ccc2nc(SCC(=O)NC3CCN(Cc4ccc(Cl)c(Cl)c4)CC3)sc2c1`, the IC50 in experiment [1] is 1.5 nM.

Regarding `CN1CCC(c2ccccc2)[C@@H]1COc1cccnc1` (stereo partly drawn), the IC50 in experiment [1] was 195 nM.

For the molecule bevacizumab, the “average anti-VEGF doses required per year” value in experiment [3] (Patient Case 1, after 6 weeks oral Compound 1) is given as 0.667 dose per year; in experiment [3] (setting [9]), 1.23 dose per year. In experiment [8], the “patients with persistent presence of fluid at the retina (OCT or angiography)” value is 67.4%.

With `CCCN1CCC(Cc2ccc(F)cc2)C[C@@H]1CCCNC(=O)Nc1cccc(C(C)=O)c1` (stereo partly drawn), the IC50 in experiment [4] was 2 nM; in experiment [2], 26 nM; in experiment [5], 19 nM.

For `C[C@@H](NC(=O)Nc1cccc(-c2nnnn2C)c1)C(O)CN1CCC[C@@H](Cc2ccc(F)cc2)C1` (stereo partly drawn), the IC50 in experiment [4] was 0.3 nM; in experiment [5], 0.038 nM.

For the molecule `CC1=C(CC(CCc2ccc([N+](=O)[O-])cc2)C2CCN(C(=O)c3ccncc3)CC2)C(=O)N(c2ccc(F)cc2)C1C` (stereo not drawn), the IC50 in experiment [1] was 12 nM.

B1: ranibizumab (antibody, chains of the INN, looked up, V domains shown)
VH: EVQLVESGGGLVQPGGSLRLSCAASGYDFTHYGMNWVRQAPGKGLEWVGWINTYTGEPTYAADFKRRFTFSLDTSKSTAYLQMNSLRAEDTAVYYCAKYPYYYGTSHWYFDVWGQGTLVTVSS
VL: DIQLTQSPSSLSASVGDRVTITCSASQDISNYLNWYQQKPGKAPKVLIYFTSSLHSGVPSRFSGSGSGTDFTLTISSLQPEDFATYYCQQYSTVPWTFGQGTKVEIK
modifications: Fab
notes: anti-VEGF antibody, intravitreal injection
Regarding B1, in experiment [3] (setting [9]), the “average anti-VEGF doses required per year” value was determined as 1.23 dose per year. In addition, the “patients with persistent presence of fluid at the retina (OCT or angiography)” value in experiment [8] is reported as 51.5%. For the same molecule, in experiment [8] (nine months after 3 initial monthly doses, FDA label), the “additional average letter gain with monthly dosing versus less frequent dosing” value is reported as 1-2 letter. In addition, the “loss of visual acuity benefit, dosing every 3 months compared with continued monthly dosing” value in experiment [8] (over the next 9 months after 4 monthly doses, FDA label) is on record as about 5 letter.
